The source of these data is patent US20060069132A1, “Azolecarboxamide herbicides” (priority 2004, published 2006).

The test system of one assay is wheat. Put plainly: Test C postemergence herbicide test. The class given is in vivo, Triticum aestivum. The protocol:
(§1) At the same time, plants selected from these crop and weed species and also winter barley (Hordeum vulgare L.), blackgrass (Alopecurus myosuroides Huds.), canarygrass (Phalaris minor Retz.), chickweed (Stellaria media (L.) Vill.), downy bromegrass (Bromus tectorum L.), green foxtail (Setaria viridis (L.) Beauv.), Italian ryegrass (Lolium multiflorum Lam.), wheat (Triticum aestivum L.), wild oat (Avenafatua L.) and windgrass (Apera spica-venti (L.) Beauv.) were treated with postemergence applications of some of the test chemicals formulated in the same manner. Plants ranged in height from 2 to 18 cm (1- to 4-leaf stage) for postemergence treatments. Plant species in the flooded paddy test consisted of rice (Oryza sativa), smallflower umbrella sedge (Cyperus difformis L.), ducksalad (Heteranthera limosa (Sw.) Willd.) and barnyardgrass (Echinochloa crus-galli (L.) Beauv.) grown to the 2-leaf stage for testing. Treated plants and controls were maintained in a greenhouse for 12 to 14 days, after which time all species were compared to controls and visually evaluated. Plant response ratings, summarized in Table C, are based on a scale of 0 to 100 where 0 is no effect and 100 is complete control. A dash (-) response means no test result.

The next assay relates to windgrass. Put plainly: Test C postemergence herbicide test. The class given is in vivo, Apera spica-venti. The procedure: as §1
The test system of the next assay is Italian ryegrass. The assay is described as follows: Test C postemergence herbicide test. The class given is in vivo, Lolium multiflorum. The protocol: as §1
The subject of a further assay is blackgrass. The assay is described as follows: Test C postemergence herbicide test. The assay is classed as in vivo, Alopecurus myosuroides. The following applies: for Blackgrass plant response rating: 500 g ai/ha. The procedure:
as §1

For another assay, the system named is quackgrass. The assay is described as follows: Test E pre-/postemergence herbicide test. The class given is in vivo, Elytrigia repens. As to conditions: Preemergence. From the text: (§2) Seeds of plant species selected from bipinnate beggarticks (Bidens bipinnata L.), hairy beggarticks (Bidens radiata Thuill.), bermudagrass (Cynodon dactylon (L.) Pers.), Surinam grass (Urochloa decumbens (Staph) R. D. Webster, previously named Brachiaria decumbens Stapf), large crabgrass (Digitaria sanguinalis (L.) Scop.), green foxtail (Setaria viridis (L.) P. Beauv.), goosegrass (Eleusine indica (L.) Gaertn.), johnsongrass (Sorghum halepense (L.) Pers.), kochia (Kochia scoparia (L.) Schrad.), pitted morningglory (Ipomoea lacunosa L.), purple nutsedge (Cyperus rotundus L.), common ragweed (Ambrosia elatior L.), mustard (Brassica nigra (L.) W. D. J. Koch), guineagrass (Panicum maximum Jacq.), dallisgrass (Paspalum dilatatum Poir.), barnyardgrass (Echinochloa crus-galli (L). P. Beauv.), southern sandbur (Cenchrus echinatus L.), common sowthistle (Sonchus oleraceous L.), prickly sida (Sida spinosa L.), Italian ryegrass (Lolium multiflorum Lam.), common purslane (Portulaca oleracea L.), broadleaf signalgrass (Brachiaria platyphylla (Griseb.) Nash), common groundsel (Senecio vulgaris L.), common chickweed (Stellaria media (L.) Vill/Cyr.), tropical spiderwort (Commelina benghalensis L.), annual bluegrass (Poa annua L.), downy bromegrass (Bromus tectorum L.), itchgrass (Rottboellia cochinchinensis (L.) L.f.), quackgrass (Elytrigia repens (L.) Nevski), Canada horseweed (Erigeron Canadensis L.), field bindweed (Convolvulus arvensis L.), spotted spurge (Euphorbia maculata L.), common mallow (Malva sylvestris (=s silvestris) L.), and Russian thistle (Salsola kali L. ssp. Ruthenica (Iljin) Soo) were planted and treated preemergence with test chemicals formulated in a non-phytotoxic solvent mixture which included a surfactant.
(§3) At the same time, plants selected from these weed species were treated with postemergence applications of some of the test chemicals formulated in the same manner. Plants ranged in height from 2 to 18 cm (1- to 4-leaf stage) for postemergence treatments. Treated plants and controls were maintained in a greenhouse for 12 to 14 days, after which time all species were compared to controls and visually evaluated. Plant response ratings, summarized in Table E, are based on a scale of 0 to 100 where 0 is no effect and 100 is complete control. A dash (-) response means no test result.

A further assay relates to tropical spiderwort. Put plainly: Test E pre-/postemergence herbicide test. The assay is classed as in vivo, Commelina benghalensis. The following applies: Preemergence.
Text: as §2, §3

In the next assay the test system is field bindweed. The assay is described as follows: Test E pre-/postemergence herbicide test. As to conditions: Preemergence. The class given is in vivo, Convolvulus arvensis.
Text: as §2, §3

Another assay concerns itchgrass. Put plainly: Test E pre-/postemergence herbicide test. The assay is classed as in vivo, Rottboellia cochinchinensis. The following applies: Preemergence.
Text: as §2, §3

For another assay, the system named is barnyardgrass. Put plainly: Test E pre-/postemergence herbicide test. The assay is classed as in vivo, Echinochloa crus-galli. The following applies: Preemergence.
Text: as §2, §3

The next assay concerns downy bromegrass. Put plainly: Test E pre-/postemergence herbicide test. The assay is classed as in vivo, Bromus tectorum. The following applies: Preemergence.
Text: as §2, §3

Setting [1] is: Postemergence, 500 g ai/ha, scale 0 to 100.
Setting [2] is: Postemergence, 250 g ai/ha, scale 0 to 100, 0 no effect, 100 complete control.
[3] abbreviates: postemergence, 125 g ai/ha, scale 0 to 100.
Where [4] appears, read: postemergence, 62 g ai/ha, scale 0 to 100.
The mark [5] stands for this setting: postemergence, 31 g ai/ha, scale 0 to 100.
Where [6] appears, read: Postemergence, 500 g ai/ha, scale 0 to 100, 0 no effect, 100 complete control.
The mark [7] stands for this setting: 250 g ai/ha, scale 0 (no effect) to 100 (complete control).
[8] abbreviates: 500 g ai/ha, scale 0 (no effect) to 100 (complete control).

With `CCn1nc(C(C)(C)C)cc1C(=O)Nc1cccc(OC(F)F)c1` [Compound 332], in the assay on wheat (setting [1]), the “Wheat plant response rating” value is 35. Moreover, the “Plant response rating, Wheat” value in the assay with wheat (setting [2]) worked out at 35; in the assay on wheat (setting [3]), 30; in the assay with wheat (setting [4]), 30. The “Windgrass plant response rating” value in the assay with windgrass (setting [1]) was 75. Further, the results for the “Plant response rating, Windgrass” value in the assay on windgrass (setting [2]), in the assay on windgrass (setting [3]) and with windgrass (setting [4]) were 65, 60 and 35, respectively. Besides, the “Ryegrass, Italian plant response rating” value in the assay with Italian ryegrass (setting [1]) was determined as 70. Moreover, the figures for the “Plant response rating, Ryegrass, Italian” value in the assay with Italian ryegrass (setting [2]), in the assay on Italian ryegrass (setting [3]) and in the assay with Italian ryegrass (setting [4]) were 70, 60 and 60, respectively. The “Blackgrass plant response rating” value with blackgrass (Postemergence, scale 0 to 100) was determined as 70. Further, the “Plant response rating, Blackgrass” value in the assay with blackgrass (setting [2]) amounted to 100; with blackgrass (setting [3]), 70; in the assay on blackgrass (setting [4]), 60.

Turning to `CCn1nc(C(C)(C)C)cc1C(=O)Nc1cc(C(=S)N(C)C)ccn1` [Compound 334], the “Plant response rating, Wheat” value in the assay on wheat (setting [2]) was determined as 75; in the assay on wheat (setting [3]), 75; in the assay with wheat (setting [4]) it was 65. Also, the “Plant response rating, Windgrass” value in the assay on windgrass (setting [2]) is 75; with windgrass (setting [3]), 60; with windgrass (setting [4]), 60. Moreover, the figures for the “Plant response rating, Ryegrass, Italian” value in the assay on Italian ryegrass (setting [2]), with Italian ryegrass (setting [3]) and in the assay with Italian ryegrass (setting [4]) were 45, 35 and 30, respectively. The “Plant response rating, Blackgrass” value was found to be 95 in the assay with blackgrass (setting [2]), 95 in the assay on blackgrass (setting [3]), 75 in the assay on blackgrass (setting [5]) and 90 with blackgrass (setting [4]).

In the case of `CCNC(=O)c1ccc(F)c(NC(=O)c2c3c(nn2CC)C(C)(C)CC3)c1` [Compound 353], the “Plant response rating, Wheat” value in the assay on wheat (setting [2]) is reported as 30; with wheat (setting [6]) it was 35; in the assay with wheat (setting [3]), 15; in the assay with wheat (setting [4]) it was 10. Further, the “Plant response rating, Windgrass” value in the assay with windgrass (setting [2]) is 10; with windgrass (setting [6]), 10; in the assay with windgrass (setting [3]) it was 10; with windgrass (setting [4]) it was 0. Besides, the “Plant response rating, Ryegrass, Italian” value is 15 in the assay on Italian ryegrass (setting [2]), 20 in the assay on Italian ryegrass (setting [6]), 15 in the assay on Italian ryegrass (setting [3]) and 10 with Italian ryegrass (setting [4]). Besides, the “Blackgrass plant response rating” value in the assay on blackgrass (Postemergence, scale 0 to 100) came out at 70. In addition, the “Plant response rating, Blackgrass” value in the assay with blackgrass (setting [2]) was 60; in the assay on blackgrass (setting [3]) it was 20; in the assay with blackgrass (setting [4]), 0.

Consider `CCOC(=O)c1cccc(NC(=O)c2nn(C(C)(C)CC)nc2CC)c1` [Compound 375], for which the “Plant response rating, Wheat” value was found to be 30 in the assay on wheat (setting [3]) and 25 in the assay on wheat (setting [4]). Further, the figures for the “Plant response rating, Windgrass” value with windgrass (setting [3]) and in the assay on windgrass (setting [4]) were 60 and 40, respectively. Besides, the “Plant response rating, Ryegrass, Italian” value with Italian ryegrass (setting [3]) and in the assay with Italian ryegrass (setting [4]) was 65 throughout. Further, the “Plant response rating, Blackgrass” value in the assay with blackgrass (setting [2]) came to 55; in the assay on blackgrass (setting [3]) it was 45; in the assay with blackgrass (setting [5]), 30; with blackgrass (setting [4]) it was 35.

As for `CCc1nn(C(C)(C)C)nc1C(=O)Nc1cccc(C(=O)N(C)CC)c1` [Compound 384], the “Plant response rating, Quackgrass” value in the assay on quackgrass (62 g ai/ha, scale 0 to 100) is on record as 50; with quackgrass (125 g ai/ha, scale 0 to 100) it was 70; in the assay with quackgrass (setting [7]), 85; in the assay with quackgrass (setting [8]) it was 85. Besides, the “Plant response rating, Wheat” value with wheat (setting [3]) is recorded as 20; with wheat (setting [4]), 10. Moreover, the “Plant response rating, Windgrass” value in the assay on windgrass (setting [3]) and in the assay with windgrass (setting [4]) was 45 each time. Besides, the “Plant response rating, Spiderwort” value in the assay on tropical spiderwort (125 g ai/ha, scale 0 to 100) is 30; with tropical spiderwort (setting [7]) it was 60; in the assay with tropical spiderwort (setting [8]), 95. The “Plant response rating, Bindweed, Field” value came out at 80 in the assay with field bindweed (62 g ai/ha, scale 0 to 100); 80 with field bindweed (setting [7]); 95 in the assay with field bindweed (setting [8]). The “Plant response rating, Itchgrass” value with itchgrass (62 g ai/ha, scale 0 to 100) was 40; in the assay with itchgrass (125 g ai/ha, scale 0 to 100), 60; in the assay with itchgrass (setting [7]) it was 70; with itchgrass (setting [8]), 85. Moreover, the “Plant response rating, Ryegrass, Italian” value in the assay on Italian ryegrass (setting [3]) was found to be 55; in the assay on Italian ryegrass (setting [4]) it was 45. Moreover, the “Plant response rating, Blackgrass” value in the assay on blackgrass (setting [2]), in the assay with blackgrass (setting [3]), in the assay with blackgrass (setting [5]) and in the assay with blackgrass (setting [4]) was 45 each time. The “Plant response rating, Barnyardgrass” value is 40 in the assay on barnyardgrass (62 g ai/ha, scale 0 to 100); 80 in the assay on barnyardgrass (125 g ai/ha, scale 0 to 100); 85 in the assay on barnyardgrass (setting [7]); 100 with barnyardgrass (setting [8]). In addition, the “Plant response rating, Bromegrass, Downy” value in the assay on downy bromegrass (62 g ai/ha, scale 0 to 100) was 20; in the assay with downy bromegrass (125 g ai/ha, scale 0 to 100), 40; in the assay on downy bromegrass (setting [7]), 40; in the assay with downy bromegrass (setting [8]), 90.

As to `C=CCNC(=O)c1cccc(NC(=O)c2nn(C(C)(C)C)nc2CC)c1` [Compound 414], the “Plant response rating, Wheat” value stood at 30 in the assay on wheat (setting [6]), 10 in the assay on wheat (setting [3]) and 10 in the assay on wheat (setting [4]). In addition, the “Plant response rating, Windgrass” value is recorded as 65 in the assay on windgrass (setting [6]), 60 in the assay with windgrass (setting [3]) and 55 in the assay on windgrass (setting [4]). Further, the figures for the “Plant response rating, Ryegrass, Italian” value in the assay on Italian ryegrass (setting [6]), in the assay with Italian ryegrass (setting [3]) and in the assay on Italian ryegrass (setting [4]) were 60, 55 and 50, respectively. Also, in the assay with blackgrass (Postemergence, scale 0 to 100), the “Blackgrass plant response rating” value worked out at 60. Besides, the “Plant response rating, Blackgrass” value is 45 in the assay with blackgrass (setting [2]), 40 in the assay with blackgrass (setting [3]) and 40 in the assay on blackgrass (setting [4]).
